Source: patent US9980943B2, “Methods of treating muscular dystrophy” (BOARD OF REGENTS OF THE NEVADA SYSTEM OF HIGHER EDUCATION, …, priority 2013, dated 2018)

Tests used:
Assay type in all cases: cell-based, mouse
[1] = system: β-galactosidase in CMV-LacZ C2C12 myoblasts; assay: CMV-LacZ secondary screen in C2C12 myoblasts (β-Gal stabilizing assay); details: CMV-LacZ C2C12 myoblasts
How it was run: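 Stable CMV-LacZ C2C12 clone; six-point curve 0.5–40 μM; duplicates.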

[2] = system: α7 integrin (LacZ reporter in α7+/LacZ myotubes); assay: Myotube α7 integrin FDG assay (Burkin assay in myotubes, 96-well); details: myotubes
[3] = system: β-galactosidase in CMV-LacZ C2C12 myotubes; assay: CMV-LacZ secondary screen in C2C12 myotubes (β-Gal stabilizing assay); details: C2C12 CMV-LacZ myotubes, fold relative to DMSO
How it was run: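 CMV-LacZ C2C12 line (clonal, FDG-screened); myoblasts/myotubes dosed 0.5–40 μM (0.5, 1, 5, 10, 20, 40 μM); n=2 per point; β-gal stabilization read-out.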

[4] = system: α7 integrin (LacZ reporter in α7βgal+/− myoblasts); assay: Myoblast α7+/LacZ integrin FDG assay (Burkin assay in myoblasts, 96-well); details: α7+/LacZ myoblasts, 96-well

SMILES	CMV-LACZ in Myoblasts (β-galactosidase activity relative to DMSO) ([1]; 0.5 uM)	CMV-LACZ in Myoblasts (β-galactosidase activity relative to DMSO) ([1]; 1 uM)	CMV-LACZ in Myoblasts (β-galactosidase activity relative to DMSO) ([1]; 5 uM)	CMV-LACZ in Myoblasts (β-galactosidase activity relative to DMSO) ([1]; 10 uM)	CMV-LACZ in Myoblasts (β-galactosidase activity relative to DMSO) ([1]; 20 uM)	CMV-LACZ in Myoblasts (β-galactosidase activity relative to DMSO) ([1]; 40 uM)	Burkin Assay in Myotubes, α7 integrin LacZ reporter signal relative to DMSO ([2]; 0.5 uM)	Burkin Assay in Myotubes, α7 integrin LacZ reporter signal relative to DMSO ([2]; 1 uM)	Burkin Assay in Myotubes, α7 integrin LacZ reporter signal relative to DMSO ([2]; 5 uM)	Burkin Assay in Myotubes, α7 integrin LacZ reporter signal relative to DMSO ([2]; 10 uM)	Burkin Assay in Myotubes, α7 integrin LacZ reporter signal relative to DMSO ([2]; 20 uM)	Burkin Assay in Myotubes, α7 integrin LacZ reporter signal relative to DMSO ([2]; 40 uM)	CMV-LACZ in Myotubes, signal relative to DMSO ([3]; 0.5 uM)	CMV-LACZ in Myotubes, signal relative to DMSO ([3]; 1 uM)	CMV-LACZ in Myotubes, signal relative to DMSO ([3]; 5 uM)	CMV-LACZ in Myotubes, signal relative to DMSO ([3]; 10 uM)	CMV-LACZ in Myotubes, signal relative to DMSO ([3]; 20 uM)	CMV-LACZ in Myotubes, signal relative to DMSO ([3]; 40 uM)	Burkin Assay in Myoblasts, signal relative to DMSO ([4]; 0.5 uM)	Burkin Assay in Myoblasts, signal relative to DMSO ([4]; 1 uM)	further results
COC(=O)Cn1c(=O)c2c(nc3n2CC(C)CN3Cc2ccccc2)n(C)c1=O (stereo not drawn) [MLS001166758-01]	0.9357	1.0175	1.1998	1.0661	0.6126	0.3481	1.0327	1.027	0.9857	0.8979	0.9856	0.8754	0.9958	0.7474	0.9780	0.9444	1.1044	0.9867	0.824	0.7394	Burkin Assay in Myoblasts, signal relative to DMSO ([4]; 5 uM): 0.9736; Burkin Assay in Myoblasts, signal relative to DMSO ([4]; 10 uM): 0.8245; Burkin Assay in Myoblasts, signal relative to DMSO ([4]; 20 uM): 0.7275; Burkin Assay in Myoblasts, signal relative to DMSO ([4]; 40 uM): 0.6174
CC(NC(=O)c1ccc(C(C)(C)C)cc1)C(c1cccs1)N1CCOCC1 (stereo not drawn) [MLS001167281-01]	1.0114	1.1289	0.9684	1.1951	0.9256	0.7467	1.063	1.054	1.074	1.142	0.8293	0.8345	1.0663	1.0789	0.8948	0.9727	1.1089	0.9722	1.089	1.18	Burkin Assay in Myoblasts, signal relative to DMSO ([4]; 5 uM): 1.075; Burkin Assay in Myoblasts, signal relative to DMSO ([4]; 10 uM): 0.9776; Burkin Assay in Myoblasts, signal relative to DMSO ([4]; 20 uM): 0.8869; Burkin Assay in Myoblasts, signal relative to DMSO ([4]; 40 uM): 0.8618
CCNC(=O)C(=O)Nc1cc2c3c(c1)CCN3C(=O)CC2 [MLS001167798-01]	1.0342	0.7750	1.1822	1.1494	1.2196	1.1452	1.051	0.9243	1.118	0.9382	0.7983	0.7231	0.9143	0.9295	1.1987	1.2238	1.3337	1.2800	1.058	1.166	Burkin Assay in Myoblasts, signal relative to DMSO ([4]; 5 uM): 1.277; Burkin Assay in Myoblasts, signal relative to DMSO ([4]; 10 uM): 1.064; Burkin Assay in Myoblasts, signal relative to DMSO ([4]; 20 uM): 1.051; Burkin Assay in Myoblasts, signal relative to DMSO ([4]; 40 uM): 1.006
